Experimental data from the CheMixHub viscosity set.
Several values for one entry are separate records, joined by “and”; a condition that tells them apart may be missing. Identical values can stand only once.

Experiment: xn = mol fraction of the nth substance listed

C1CCOC1 + CCC(C)O
viscosity [mPa·s], 101 kPa
Settings	298.15 K	313.15 K
x1 = 0.0637	2.356	1.464
x1 = 0.1052	2.02	1.309
x1 = 0.1565	1.747	1.153
x1 = 0.2117	1.467	0.9942
x1 = 0.3052	1.155	0.8235
x1 = 0.4013	0.9585	0.7044
x1 = 0.4556	0.8592	0.6537
x1 = 0.4888	0.8108	0.6218
x1 = 0.5	0.8021	–
x1 = 0.6054	0.6741	0.5395
x1 = 0.7009	0.5953	0.4897
x1 = 0.8036	0.533	0.4512
x1 = 0.8596	0.5129	0.4316
x1 = 0.9151	0.4818	0.4075
x1 = 0.9497	0.4749	0.4072

COc1ccccc1 + CCC(C)O
viscosity [mPa·s], 101.33 kPa
Settings	x1 = 0.0999	x1 = 0.2001	x1 = 0.3001	x1 = 0.3998	x1 = 0.5	x1 = 0.6001	x1 = 0.7	x1 = 0.8002	x1 = 0.9
303.15 K	1.759	1.366	1.172	1.068	1.001	0.969	0.951	0.934	0.918
313.15 K	1.335	1.068	0.932	0.862	0.843	0.831	0.816	0.803	0.792
323.15 K	1.023	0.852	0.769	0.745	0.739	0.731	0.723	0.709	0.698

C1CCOC1 + CCCCCC
Settings	viscosity [mPa·s]
293.15 K, 101 kPa, x1 = 0.1171	0.3234
293.15 K, 101 kPa, x1 = 0.23	0.3356
293.15 K, 101 kPa, x1 = 0.3386	0.349
293.15 K, 101 kPa, x1 = 0.4434	0.36
293.15 K, 101 kPa, x1 = 0.5444	0.3797
293.15 K, 101 kPa, x1 = 0.6418	0.4007
293.15 K, 101 kPa, x1 = 0.736	0.4207
293.15 K, 101 kPa, x1 = 0.8269	0.442
293.15 K, 101 kPa, x1 = 0.9149	0.465
298 K, 101 kPa, x2 = 0.0984	0.431
298 K, 101 kPa, x2 = 0.1946	0.407
298 K, 101 kPa, x2 = 0.2979	0.387
298 K, 101 kPa, x2 = 0.3518	0.374
298 K, 101 kPa, x2 = 0.4012	0.365
298 K, 101 kPa, x2 = 0.4477	0.357
298 K, 101 kPa, x2 = 0.4775	0.352
298 K, 101 kPa, x2 = 0.5496	0.342
298 K, 101 kPa, x2 = 0.6159	0.333
298 K, 101 kPa, x2 = 0.6436	0.33
298 K, 101 kPa, x2 = 0.7063	0.323
298 K, 101 kPa, x2 = 0.7549	0.318
298 K, 101 kPa, x2 = 0.7901	0.314
298 K, 101 kPa, x2 = 0.9039	0.303
298.15 K, 101 kPa, x1 = 0.1171	0.3025
298.15 K, 101 kPa, x1 = 0.23	0.3142
298.15 K, 101 kPa, x1 = 0.3386	0.3258
298.15 K, 101 kPa, x1 = 0.4434	0.3381
298.15 K, 101 kPa, x1 = 0.5444	0.357
298.15 K, 101 kPa, x1 = 0.6418	0.3736
298.15 K, 101 kPa, x1 = 0.736	0.3943
298.15 K, 101 kPa, x1 = 0.8269	0.415
298.15 K, 101 kPa, x1 = 0.9149	0.4365
303.15 K, 101.33 kPa, x1 = 0.0971	0.285
303.15 K, 101.33 kPa, x1 = 0.1966	0.295
303.15 K, 101.33 kPa, x1 = 0.3001	0.307
303.15 K, 101.33 kPa, x1 = 0.4	0.32
303.15 K, 101.33 kPa, x1 = 0.5034	0.334
303.15 K, 101.33 kPa, x1 = 0.5974	0.349
303.15 K, 101.33 kPa, x1 = 0.7066	0.369
303.15 K, 101.33 kPa, x1 = 0.7889	0.386
303.15 K, 101.33 kPa, x1 = 0.8992	0.41

CC(C)=O + CCCCCC
298.15 K, 101 kPa
Settings	viscosity [mPa·s]
x1 = 0.1416	0.303
x1 = 0.2707	0.3137
x1 = 0.3888	0.3047
x1 = 0.4974	0.2983
x1 = 0.5975	0.3043
x1 = 0.6901	0.3039
x1 = 0.776	0.2984
x1 = 0.8559	0.3113
x1 = 0.9304	0.3144

c1ccc2ccccc2c1 + CCCCCC
viscosity
Settings	298.15 K	303.15 K	308.15 K	313.15 K	318.15 K
101 kPa, x1 = 0.09526	0.3806 mPa·s	0.3636 mPa·s	0.3455 mPa·s	0.331 mPa·s	0.3166 mPa·s
101 kPa, x1 = 0.1771	–	0.4135 mPa·s	0.3922 mPa·s	0.3737 mPa·s	0.3567 mPa·s
101.33 kPa, x1 = 0.09526	0.3806 mPa·s	0.3636 mPa·s and 0.3636 mPa·s	0.3455 mPa·s	0.331 mPa·s	0.3166 mPa·s and 0.3166 mPa·s
101.33 kPa, x1 = 0.1185	–	0.3813 mPa·s	–	–	0.3268 mPa·s
101.33 kPa, x1 = 0.1464	–	0.3926 mPa·s	–	–	0.3406 mPa·s
101.33 kPa, x1 = 0.1771	–	0.4135 mPa·s	–	–	0.3567 mPa·s
101.33 kPa, x1 = 0.18	–	0.4135 mPa·s	0.3922 mPa·s	0.3737 mPa·s	0.3567 mPa·s
101.33 kPa, x1 = 0.2165	–	–	–	–	0.3785 mPa·s

CCCCCCCCC(=O)O + CCCCCC(=O)[O-].[Na+]
100 kPa, x2 = 0.3
Settings	viscosity [mPa·s]
293.15 K	280.5
298.15 K	209
303.15 K	158.8
308.15 K	122.9
313.15 K	96.5
318.15 K	76.9
323.15 K	62.2

C1CCOC1 + CCCCCCC
viscosity [mPa·s], 101 kPa
Settings	x1 = 0.1338	x1 = 0.2578	x1 = 0.3733	x1 = 0.4809	x1 = 0.5815	x1 = 0.6758	x1 = 0.7643	x1 = 0.8475	x1 = 0.926
293.15 K	0.403	0.4075	0.413	0.4191	0.4285	0.4385	0.4495	0.4619	0.4751
298.15 K	0.3861	0.3891	0.3935	0.3984	0.4061	0.4146	0.4242	0.4356	0.4465

CC(C)=O + CCCCCCC
296 K, 101.3 kPa
Settings	viscosity [mPa·s]
x1 = 0.0795	0.385
x1 = 0.1252	0.377
x1 = 0.1699	0.37
x1 = 0.2532	0.362
x1 = 0.3008	0.358
x1 = 0.3956	0.351
x1 = 0.4536	0.347
x1 = 0.5061	0.342
x1 = 0.6193	0.333
x1 = 0.6981	0.328
x1 = 0.7504	0.321
x1 = 0.8116	0.316
x1 = 0.8666	0.314
x1 = 0.9144	0.309
x1 = 0.9678	0.311

Cc1ccccc1 + CCCCCCC
298.15 K, 101 kPa
Settings	viscosity [mPa·s]
x2 = 0.4771	0.4775
x2 = 0.4859	0.476
x2 = 0.4953	0.474
x2 = 0.4983	0.4735
x2 = 0.4996	0.473
x2 = 0.5045	0.472
x2 = 0.5106	0.471
x2 = 0.5179	0.47
x2 = 0.5212	0.469
x2 = 0.5328	0.467
x2 = 0.5408	0.4655
x2 = 0.55	0.464
x2 = 0.561	0.4615
x2 = 0.579	0.458
x2 = 0.603	0.4535

COc1ccccc1 + CCCCCCCCCCCC
viscosity [mPa·s], 101.3 kPa
Settings	x1 = 0.1618	x1 = 0.2902	x1 = 0.3869	x1 = 0.4735	x1 = 0.5603	x1 = 0.7159	x1 = 0.843	x1 = 0.9414
293.15 K	1.324	1.228	1.17	1.125	1.092	1.023	–	–
303.15 K	1.123	1.048	–	0.964	0.94	0.903	0.89	0.902
313.15 K	0.967	0.908	0.872	0.843	0.821	0.791	0.781	0.79
323.15 K	0.844	0.797	0.768	0.744	0.726	0.701	0.692	0.699

CCCCCCCCC(=O)O + CCCCCCCCCCCC(=O)O
100 kPa, x2 = 0.25
Settings	viscosity [mPa·s]
293.15 K	10.12
298.15 K	8.636
303.15 K	7.443
308.15 K	6.47
313.15 K	5.669
318.15 K	5.003
323.15 K	4.444

CCCCCCCCC(=O)O + CCCCCCCCCCCC(=O)[O-].[Na+]
100 kPa, x2 = 0.2
Settings	viscosity [mPa·s]
293.15 K	68.61
298.15 K	54.38
303.15 K	43.69
308.15 K	35.55
313.15 K	29.28
318.15 K	24.38
323.15 K	20.51

COc1ccccc1 + CCCCCCCCCCCCCCCC
viscosity [mPa·s], 101.3 kPa
Settings	x1 = 0.1745	x1 = 0.2566	x1 = 0.3849	x1 = 0.4725	x1 = 0.5679	x1 = 0.6889	x1 = 0.8311	x1 = 0.944
293.15 K	2.794	2.566	2.193	1.975	1.773	1.51	1.279	1.131
303.15 K	2.261	2.079	1.806	1.64	1.478	1.286	1.084	0.97
313.15 K	1.866	1.73	1.518	1.387	1.258	1.092	0.942	0.845
323.15 K	1.571	1.436	1.296	1.192	1.088	0.964	0.836	0.747

CCCCCCCCCCCCCCCCC + CCCCCCCCCCO
100 kPa, x1 = 0.076
Settings	viscosity [mPa·s]
298.2 K	10.21
308.2 K	6.94
318.2 K	4.87

COc1ccccc1 + CCCCCCCCO
viscosity [mPa·s], 101.33 kPa
Settings	x1 = 0.1001	x1 = 0.2	x1 = 0.3002	x1 = 0.3998	x1 = 0.5	x1 = 0.6002	x1 = 0.7001	x1 = 0.8002	x1 = 0.9
303.15 K	4.86	3.795	3.074	2.432	1.966	1.576	1.217	1.108	0.968
313.15 K	3.589	2.872	2.342	1.922	1.561	1.28	1.014	0.934	0.831
323.15 K	2.702	2.163	1.863	1.547	1.288	1.054	0.843	0.789	0.725

CC1COC(=O)O1 (stereo not given) + CCCCCCCO
298.15 K, 101 kPa
Settings	viscosity [mPa·s]
x1 = 0.0321	4.755
x1 = 0.1202	4.481
x1 = 0.1934	4.281
x1 = 0.2735	4.035
x1 = 0.3226	3.909
x1 = 0.4002	3.709
x1 = 0.4717	3.534
x1 = 0.5334	3.39
x1 = 0.6111	3.217
x1 = 0.699	3.031
x1 = 0.7602	2.909
x1 = 0.8226	2.789
x1 = 0.8925	2.662
x1 = 0.9674	2.529
